Data: patent publication US12691143B2, “Method for treating cancer” (priority 2020, dated 2026)

Key:
[1] = tested on: KE1 bladder cancer cell line (ERCC2-mutated derivative of KU19-19, NER-deficient); assay: In vitro drug sensitivity assay (CellTiter-Glo); format: cell-based; details: NER-deficient KE1, compared with isogenic KU19-19; 48 to 72 hours
Description: (§1) Bladder cancer cell lines were purchased from ATCC. The KE1 bladder cancer cell line is a derivative of KU19-19 in which an ERCC2 T484 mutation has been introduced by CRISPR/Cas9 gene editing as previously described (6). The MDA-MB-468 breast cancer cell line and its ERCC4-complemented derivative have been previously described (35). Small interfering RNAs (siRNAs) targeting specific NER genes as well as a non-targeting siRNA (siNTC) were purchased from Integrated DNA Technologies Inc. (Coralville, IA, USA; see Table 9 for sequences). Cells were seeded in 6-well plates and grown to 50% confluency. A transfection mixture containing siRNA diluted to a final concentration of 30 nM in Opti-MEM media containing Lipofectamine 3000 (Life Technologies; Carlsbad, CA) was then added to cells. After 48 hours, cells were trypsinized and re-aliquoted to separate wells and transfected with 15 nM siRNA for 24 hours immediately prior to viability assays performed as described below. […]
(§2) Cells were seeded in either 96-well (5,000 cells/well) or 24-well (20,000 cells/well) plates. […] Plates were scanned using a luminescence microplate reader (BioTek). […]

[2] = tested on: SC14 (SW1710 derivative with ERCC2 P463L mutation); assay: In vitro drug sensitivity assay; format: cell-based; details: ERCC2-mutant SC14 line compared with SW1710
Description: as §1, §2

[3] = tested on: cisplatin-resistant MDA-MB-468 cell line; assay: In vitro drug sensitivity assay in cisplatin-resistant derivative; format: cell-based; details: cisplatin-resistant vs parental MDA-MB-468
Description: Cells were seeded in either 96-well (5,000 cells/well) or 24-well (20,000 cells/well) plates. The following day, irofulven and cisplatin stock solutions were serially diluted in media and added to cells. After 48 to 72 hours, media was removed and CellTiter-Glo® reagent (Promega; Madison, WI) was added. Plates were scanned using a luminescence microplate reader (BioTek). Survival at each drug concentration was plotted as a percentage of survival in drug-free media with error bars representing the standard deviation of at least three experiments.
Platinum-based chemotherapy is a first-line treatment for numerous solid malignancies including bladder cancer, but platinum resistance frequently occurs and represents a challenging clinical problem. Although a variety of platinum resistance mechanisms have been characterized, restoration or upregulation of DNA repair is a common mechanism of resistance, particularly in HR-deficient breast and ovarian tumors^33. Mechanisms of platinum resistance in NER deficient tumors have not been characterized, and we wished to determine if acquired resistance to cisplatin would confer cross-resistance to irofulven through restoration of NER. To test this, we derived cisplatin resistance in the NER-deficient MDA-MB-468 cell line by gradual exposure to escalating doses of cisplatin (Methods).

[4] = tested on: muscle-invasive bladder cancer; assay: Pathologic response to neoadjuvant cisplatin-based chemotherapy, DFCI/MSKCC cohort; format: in vivo, human; details: for complete response rate: all cases
Description: (§3) To validate the ability of the NERDetect classifier to discriminate between ERCC2 mutant and WT bladder tumors, we analyzed WES data from three additional independent bladder cancer cohorts^53,0,31. The DFCI/MSK (n=50) and FCCC (n=48) cohorts are comprised of muscle-invasive bladder cancer patients who received neoadjuvant cisplatin-based chemotherapy followed by radical cystectomy, while the BGI cohort (n=98) included patients with MIBC or non-muscle-invasive bladder cancer.
(§4) Patients in the DFCI/MSK and FCCC cohorts were treated with cisplatin-based chemotherapy followed by radical cystectomy, and cisplatin responders were defined as those that had no residual invasive disease on pathologic examination of the cystectomy specimen.
(§5) Patients in the DFCI/MSK and Philadelphia cohorts were treated with cisplatin-based chemotherapy followed by radical cystectomy, and cisplatin responders were defined as patients with no residual invasive disease on pathologic examination of the cystectomy specimen.

[5] = tested on: muscle-invasive bladder cancer; assay: Pathologic response to neoadjuvant cisplatin-based chemotherapy, Philadelphia (FCCC) cohort; format: in vivo, human
Description: as §3, §4, §5

[6] = tested on: muscle-invasive and metastatic urothelial cancer; details: cisplatin-based chemotherapy, first-line; cited from earlier work
[7] = tested on: MDA-MB-468 breast cancer cell line (NER deficient, ERCC4 silenced); details: MDA-MB-468 with re-expression of WT ERCC4; previous work; cited from earlier work

N.N.[Cl][Pt][Cl] [cisplatin]
drug sensitivity (survival as percentage of drug-free media) [1]: increased sensitivity | drug sensitivity [2]: significantly increased sensitivity | cisplatin IC50, cisplatin resistant cell line relative to parental [3]: ~ 3.5 fold | cisplatin responders ([4]; WT ERCC2 patients, ERCC2mut score<0.70 (9 of 32)): 28% | cisplatin responders ([4]; WT ERCC2 patients, ERCC2mut score≥0.70 (seven of nine)): 78% | cisplatin responders ([4]; WT ERCC2 patients, NERDetect score<0.75 (10 of 31)): 32% | cisplatin responders ([4]; WT ERCC2 patients, NERDetect score≥0.75 (six of eight)): 75% | cisplatin responders ([4]; all 41 WT ERCC2 cases (16)): 39% | complete response rate ([4]; ERCC2mut score<0.70 (10 of 33)): 30% | complete response rate ([4]; ERCC2mut signature score≥0.70 (15 of 17)): 88% | complete response rate ([4]; NERDetect score ≥0.75 (14 of 16)): 87% | complete response rate ([4]; NERDetect score<0.75 (11 of 34)): 32% | complete response rate ([5]; ERCC2mut score<0.70 (14 of 42)): 33% | complete response rate ([5]; ERCC2mut signature score≥0.70 (all six)): 100% | complete response rate ([5]; NERDetect score<0.75 (14 of 41)): 34% | complete response rate ([5]; NERDetect score≥0.75 (six of seven)): 86% | patients with an initial response [6]: 60-70% | cisplatin sensitivity after re-expression of ERCC4 [7]: could be rescued
